According to US8247211B2, “Glycopeptide antibiotics” (American Cyanamid Company, priority 2001, dated 2012):
Values after ≈ are worked out from the molar mass of the structure shown.

How the values were obtained:
Test in all cases: In vitro antibacterial evaluation: minimum inhibitory concentration (MIC), broth dilution method
Type in all cases: cell-based
Escherichia coli = conditions: 18 hours at 35° C.
In short: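 First, organisms are seeded at 5×10^5 CFU/mL into Muller-Hinton II […]. Next, antibiotic is applied across 64-0.06 μg/mL by broth dilution (NCCLS M7-A2). Finally, the lowest inhibitory concentration is recorded as MIC.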

Staphylococcus sp. = tested on: Staphylococcus sp.
In short: (§1)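 Inoculum: 5×10^5 CFU/mL. Range: 64-0.06 μg/mL. Medium: Muller-Hinton II […]; NCCLS M7-A2 broth dilution. Endpoint: lowest concentration inhibiting growth. Strains include methicillin-, penicillin- and/or vancomycin-resistant clinical isolates.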

Streptococcus sp. = conditions: 18 hours at 35° C.
In short: as §1

Enterococcus sp. = conditions: 18 hours at 35° C.
In short: as §1

[1] = broth dilution, inoculum 5×10^5 CFU/mL

- MIC Escherichia coli (ATCC 25922) (Escherichia coli; Escherichia coli (ATCC 25922)): >64 µg/mL
- MIC Escherichia coli (GC 4559) (Escherichia coli; Escherichia coli (GC 4559)): >64 µg/mL
- MIC Escherichia coli (GC 4560) (Escherichia coli; Escherichia coli (GC 4560)): >64 µg/mL
- MIC Staphylococcus aureus (ATCC 29213) (Staphylococcus sp.; strain ATCC 29213): >64 µg/mL
- MIC Staphylococcus aureus (GC 1131) (Staphylococcus sp.; strain GC 1131): >64 µg/mL
- MIC Staphylococcus aureus (GC 3051) (Staphylococcus sp.; strain GC 3051): >64 µg/mL
- MIC Staphylococcus aureus (GC 3053) (Staphylococcus sp.; strain GC 3053): >64 µg/mL
- MIC Staphylococcus aureus (GC 4541) (Staphylococcus sp.; strain GC 4541): >64 µg/mL
- MIC Staphylococcus aureus (GC 4542) (Staphylococcus sp.; strain GC 4542): >64 µg/mL
- MIC Staphylococcus aureus-SMITH (GC 4543) (Staphylococcus sp.; strain GC 4543): >64 µg/mL
- MIC Staphylococcus aureus (GC 4544) (Staphylococcus sp.; strain GC 4544): >64 µg/mL
- MIC Staphylococcus aureus (GC 4545) (Staphylococcus sp.; strain GC 4545): >64 µg/mL
- MIC Coagulase Negative Staphylococcus (GC 4547) (Staphylococcus sp.; strain GC 4547): >64 µg/mL
- MIC Coagulase Negative Staphylococcus (GC 4548) (Staphylococcus sp.; strain GC 4548): >64 µg/mL
- MIC Coagulase Negative Staphylococcus (GC 4549) (Staphylococcus sp.; strain GC 4549): >64 µg/mL
- MIC Coagulase Negative Staphylococcus (GC 4551) (Staphylococcus sp.; strain GC 4551): >64 µg/mL
- MIC Coagulase Negative Staphylococcus (GC 6257) (Staphylococcus sp.; strain GC 6257): >64 µg/mL
- MIC Streptococcus agalactiae (GC 4564) (Streptococcus sp.; Streptococcus agalactiae (GC 4564)): 1 µg/mL (≈ 0.624 µM)
- MIC Streptococcus pneumoniae (ATCC 6301) (Streptococcus sp.; Streptococcus pneumoniae (ATCC 6301)): 0.12 µg/mL (≈ 0.0748 µM)
- MIC Streptococcus pneumoniae (GC 1894) (Streptococcus sp.; Streptococcus pneumoniae (GC 1894)): <0.06 µg/mL
- MIC Streptococcus pneumoniae (GC 4565) (Streptococcus sp.; Streptococcus pneumoniae (GC 4565)): <0.06 µg/mL
- MIC Streptococcus pyogenes (GC 4563) (Streptococcus sp.; Streptococcus pyogenes (GC 4563)): 16 µg/mL (≈ 9.98 µM)
- MIC Streptococcus agalactiae (GC 4564) (Streptococcus sp.; [1]): 1 µg/mL (≈ 0.624 µM)
- MIC Streptococcus pneumoniae (ATCC 6301) (Streptococcus sp.; [1]): 0.12 µg/mL (≈ 0.0748 µM)
- MIC Streptococcus pneumoniae (GC 1894) (Streptococcus sp.; [1]): <0.06 µg/mL
- MIC Streptococcus pneumoniae (GC 4565) (Streptococcus sp.; [1]): <0.06 µg/mL
- MIC Streptococcus pyogenes (GC 4563) (Streptococcus sp.; [1]): 16 µg/mL (≈ 9.98 µM)
- MIC Enterococcus avium (GC 4558) (Enterococcus sp.; Enterococcus avium (GC 4558)): 64 µg/mL (≈ 39.9 µM)
- MIC Enterococcus faecalis (ATCC 29212) (Enterococcus sp.; Enterococcus faecalis (ATCC 29212)): >64 µg/mL
- MIC Enterococcus faecalis (GC 2242) (Enterococcus sp.; Enterococcus faecalis (GC 2242)): >64 µg/mL
- MIC Enterococcus faecalis (GC 2691) (Enterococcus sp.; Enterococcus faecalis (GC 2691)): >64 µg/mL
- MIC Enterococcus faecalis (GC 3059) (Enterococcus sp.; Enterococcus faecalis (GC 3059)): >64 µg/mL
- MIC Enterococcus faecalis (GC 4552) (Enterococcus sp.; Enterococcus faecalis (GC 4552)): >64 µg/mL
- MIC Enterococcus faecalis (GC 4553) (Enterococcus sp.; Enterococcus faecalis (GC 4553)): 32 µg/mL (≈ 20 µM)
- MIC Enterococcus faecalis (GC 4554) (Enterococcus sp.; Enterococcus faecalis (GC 4554)): >64 µg/mL
- MIC Enterococcus faecalis (GC 6189) (Enterococcus sp.; Enterococcus faecalis (GC 6189)): >64 µg/mL
- MIC Enterococcus faecium (GC 2243) (Enterococcus sp.; Enterococcus faecium (GC 2243)): 32 µg/mL (≈ 20 µM)
- MIC Enterococcus faecium (GC 4556) (Enterococcus sp.; Enterococcus faecium (GC 4556)): >64 µg/mL
- MIC Enterococcus faecium (GC 4557) (Enterococcus sp.; Enterococcus faecium (GC 4557)): >64 µg/mL
- MIC Enterococcus avium (GC 4558) (Enterococcus sp.; [1]): 64 µg/mL (≈ 39.9 µM)
- MIC Enterococcus faecalis (ATCC 29212) (Enterococcus sp.; [1]): >64 µg/mL
- MIC Enterococcus faecalis (GC 2242) (Enterococcus sp.; [1]): >64 µg/mL
- MIC Enterococcus faecalis (GC 2691) (Enterococcus sp.; [1]): >64 µg/mL
- MIC Enterococcus faecalis (GC 3059) (Enterococcus sp.; [1]): >64 µg/mL
- MIC Enterococcus faecalis (GC 4552) (Enterococcus sp.; [1]): >64 µg/mL
- MIC Enterococcus faecalis (GC 4553) (Enterococcus sp.; [1]): 32 µg/mL (≈ 20 µM)
- MIC Enterococcus faecalis (GC 4554) (Enterococcus sp.; [1]): >64 µg/mL
- MIC Enterococcus faecalis (GC 6189) (Enterococcus sp.; [1]): >64 µg/mL
- MIC Enterococcus faecium (GC 2243) (Enterococcus sp.; [1]): 32 µg/mL (≈ 20 µM)
- MIC Enterococcus faecium (GC 4556) (Enterococcus sp.; [1]): >64 µg/mL
- MIC Enterococcus faecium (GC 4557) (Enterococcus sp.; [1]): >64 µg/mL
Structure (SMILES): CC(C)=CCCC(C)=CCCC(C)=CCOc1cccc(C2OCC3OC(OC4C(CO)OC(Oc5ccc(CC6NC(=O)C(C(C)c7ccccc7)NC(=O)CNC(=O)C(CO)NC(=O)C(C(O)C7CNC(=N)N7C7OC(CO)C(O)C(O)C7O)NC(=O)C(C(O)C7CNC(=N)N7)NC6=O)cc5)C(O)C4O)C(O)C(O)C3O2)c1 (stereo not shown) [Example 185]
- MIC Staphylococcus haemolyticus (GC 4546) (Staphylococcus sp.; strain GC 4546): >64 µg/mL
